In article PMC7414031, “Correlation between hemolytic activity, cytotoxicity and systemic in vivo toxicity of synthetic antimicrobial peptides” (Scientific Reports, 2020):
pIC50: −log10 of the molar value. Values after ≈ are worked out from the molar mass of the structure shown. Peptide text beside a SMILES is read from it.

Columns and labels:
Staphylococcus aureus = system: Staphylococcus aureus; set-up: method as in PMID 30842436; conditions: cited from earlier work
Pseudomonas aeruginosa = system: Pseudomonas aeruginosa; set-up: method as in PMID 30842436; conditions: cited from earlier work
in vitro [1] = assay type: cell-based, bovine; conditions: bovine
Protocol: (§1) The haemolytic activity of the 24 structurally related peptides (Table 1) was evaluated in erythrocytes from four different species (human, canine, bovine and rat) employing standard methodology. The subsequent release of haemoglobin was used to assess haemolytic activity as function of peptide and peptidomimetic concentration, with concentrations ranging from 0.15 to 150 µM (Presented in whole in Supplementary information Table S1–S4).
(§2) Human and rat (Sprague–Dawley) blood samples were purchased by Bioreclamation IVT (Westbury, NY, USA), collected in tubes containing heparin as anticoagulant and stored at 4 °C before use. Dog and bovine whole blood was collected from in-house animals at Zoetis Animal Health, Kalamazoo, Michigan and stored at 4 °C in tubes containing heparin as anticoagulant. 10 mL of each whole blood sample were centrifuged at 1,500 × g for 5 min and the resulting plasma fraction was removed from the samples. The pellets were washed with an equal volume (10 mL) of saline, mixing by inversion. The centrifuging and washing steps were repeated 5 times. After the last washing step, a volume of PBS was added, and the resulting samples were diluted 1:10 with PBS to yield an RBC concentration of ~ 5 × 10^8 RBC/mL. The assay was performed in a 384-well polypropylene microplate (Greiner 784201, Greiner Bio-One International, GMBH) through a Bravo Liquid Handling Platform 384 system (Agilent Technologies, Santa Clara, CA, USA) according to the previously published procedures. The compounds were tested in serial 1:1 dilutions in PBS, with final concentrations ranging from 150 to 1.2 µM. Melittin was used as reference lytic peptide. 1% TritonX100 and PBS were used as positive and negative (diluent) controls, respectively. The final concentrations were obtained by adding to the wells 7 µL of each solution, melittin or PBS, followed by 63 µL of RBCs to each well. The plate was sealed, shaken on a plate shaker for 20 s, incubated for one hour at 37 °C. Finally, it was centrifuged at 1,500 × g for 5 min at room temperature. 60 µL of supernatants were removed from all plate wells via a Bravo 384 robot and transferred to a flat-bottomed 384-well plate (Greiner UV-Star #7810801, Greiner Bio-One International, GMBH). The plate was centrifuged at 1,000 g for 1 min to remove air bubbles and optical density was measured at 405 nm using a plate reader. Percentage of haemolysis was calculated with the following equation: %haemolysis=(absorbance of test sample)-absorbance of diluent/absorbance of positive control-absorbance of diluent×100.

bovine erythrocytes = test: in vitro; assay type: cell-based; conditions: bovine erythrocytes
Protocol: as §1, §2

canine erythrocytes = test: in vitro; assay type: cell-based, dog; conditions: for IC10 haemolysis: canine erythrocytes; for pIC50: red cells of canine
Protocol: as §1, §2

in vitro [2] = assay type: cell-based, dog; conditions: dog
Protocol: as §1, §2

[3] = system: Staphylococcus pseudintermedius; conditions: cited from earlier work
human erythrocytes = test: in vitro; assay type: cell-based; conditions: for IC10 haemolysis: human erythrocytes; for pIC50: red cells of human
Protocol: as §1, §2

in vitro [4] = assay type: cell-based, human; conditions: human
Protocol: as §1, §2

rat erythrocytes = test: in vitro; assay type: cell-based, rat (Sprague–Dawley); conditions: for IC10 haemolysis: rat erythrocytes; for pIC50: red cells of rat
Protocol: as §1, §2

in vitro [5] = assay type: cell-based, rat (Sprague–Dawley); conditions: Sprague-Dawley, rat
Protocol: as §1, §2

HeLa cells = assay type: cell-based, human; conditions: 1 h
Protocol: (§3) An immortalised human keratinocyte (HaCaT) cell line (Gift from David Gram Naym at Bispebjerg Hospital, Denmark), a human liver cancer cell line (HepG2; ATCC HB-8065) and a human epithelial cervical cancer cell line (HeLa; ATCC CCL-2) were cultured to ∼90% confluence after 21–25 h of growth under standard conditions (5% CO2 at 37 °C). Cells were cultured in Dulbecco’s Modified Eagle’s Medium supplemented with 10% (v/v) fetal bovine serum (FBS). All culture media were supplemented with penicillin (100 IU/mL) and streptomycin (100 μg/mL). All cell media and supplements were obtained from Sigma-Aldrich (St. Louis, MO, United States). The 96-well plates were supplied by Corning Costar (Sigma-Aldrich, Brøndby, Denmark). Cell viability assessment was performed on cell monolayers grown to ∼90% confluence in 96-well plates by using the MTS/PMS assay as previously described. Briefly, the adhered cells were washed with PBS solution (37 °C) (ThermoFisher Scientific, Roskilde) and exposed for 1 h at 37 °C to 100 μL of peptides dissolved in the medium also used for culturing of the cell line (at concentrations in the range 0–1,000 μg/mL). The cells were subsequently washed twice with 37 °C PBS and then 100 μL of an MTS/PMS solution in media, consisting of 240 μg/mL MTS (Promega, Madison, WI, United States) and 2.4 mg/mL PMS (Promega, Madison, WI, United States), was added to the cells, which then were incubated for 1 h at 37 °C protected from light. A plate reader (SpectraMax i3X; Molecular devices, San Jose, CA) was used to measure the absorbance at 492 nm. The relative viability was calculated by using 0.2% (w/v) sodium dodecyl sulfate (SDS) as the positive control, while cells exposed to medium without test compound were used as the negative control.

HaCaT cells = assay type: cell-based, human; conditions: 1 h
Protocol: as §3

Compound | MIC against Staphylococcus aureus (Staphylococcus aureus) [µg/mL] | MIC against Pseudomonas aeruginosa (Pseudomonas aeruginosa) [µg/mL] | hemolysis at 1 h, 150 µM (in vitro [1]) [%] | IC10 haemolysis (bovine erythrocytes) [µM] | IC10 haemolysis (canine erythrocytes) [µM] | pIC50 (canine erythrocytes) | hemolysis at 1 h, 150 µM (in vitro [2]) [%] | MIC against Staphylococcus pseudintermedius [3] [µg/mL] | IC10 haemolysis (human erythrocytes) [µM] | pIC50 (human erythrocytes) | hemolysis at 1 h, 150 µM (in vitro [4]) [%] | IC10 haemolysis (rat erythrocytes) [µM] | pIC50 (rat erythrocytes) | hemolysis at 1 h, 150 µM (in vitro [5]) [%] | pIC50 (HeLa cells) | pIC50 (HaCaT cells) | S.p. MIC ([3]; Staphylococcus pseudintermedius, Table S5, in µM) [µM]
CC(C)C[C@@H](NC(=O)[C@H](CCCCN)NC(=O)[C@H](CCCCN)NC(=O)[C@@H](N)CCCCN)C(=O)N[C@H](Cc1cccc2ccccc12)C(=O)N[C@H](Cc1ccc(O)cc1)C(=O)N[C@H](Cc1cccc2ccccc12)C(N)=O [Compound 21, Lys-Lys-Lys-Leu-(1-Nal)Ala-Tyr-(1-Nal)Ala] (HELM PEPTIDE1{K.K.K.[dL].[O=C([C@@H](Cc1cccc2ccccc12)N[*:1])[*:2]].[dY].[O=C([C@@H](Cc1cccc2ccccc12)N[*:1])[*:2]].[am]}$$$$V2.0) | 32 to 64 | 8 (≈ 7.46 µM) | 16 | 109.7 | 48.2 | < 3.82 | 19.9 | 2 to 4 | > 150 | < 3.82 | < 8 | > 150 | < 3.82 | < 8 | – | – | –
CCCC[C@H](NC(=O)[C@H](CCCCN)NC(=O)[C@H](CCCCN)NC(=O)[C@@H](N)CCCCN)C(=O)N[C@@H](Cc1cccc2ccccc12)C(=O)N[C@@H](Cc1ccccc1)C(=O)N[C@@H](Cc1cccc2ccccc12)C(N)=O [Compound 20, Lys-Lys-Lys-Nle-(1-Nal)Ala-Phe-(1-Nal)Ala] (HELM PEPTIDE1{K.K.K.[Nle].[O=C([C@H](Cc1cccc2ccccc12)N[*:1])[*:2]].F.[O=C([C@H](Cc1cccc2ccccc12)N[*:1])[*:2]].[am]}$$$$V2.0) | > 64 | 16 (≈ 15.1 µM) | 20.1 | 94.7 | 45.8 | < 3.82 | 36 | 16 to 32 | 91.3 | < 3.82 | 27.5 | > 150 | < 3.82 | < 8 | – | – | –
CC(C)C[C@H](NC(=O)[C@H](CCCCN)NC(=O)[C@H](CCCCN)NC(=O)[C@@H](N)CCCCN)C(=O)N[C@@H](Cc1ccc2ccccc2c1)C(=O)N[C@@H](Cc1ccc(O)cc1)C(=O)N[C@@H](Cc1ccc2ccccc2c1)C(N)=O [Compound 17, Lys-Lys-Lys-Leu-(2-Nal)Ala-Tyr-(2-Nal)Ala] (HELM PEPTIDE1{K.K.K.L.[O=C([C@H](Cc1ccc2ccccc2c1)N[*:1])[*:2]].Y.[O=C([C@H](Cc1ccc2ccccc2c1)N[*:1])[*:2]].[am]}$$$$V2.0) | > 64 | > 64 | 19.9 | 81.4 | 59.6 | 4.06 | 100 | 16 (≈ 14.9 µM) | 61.1 | 3.96 | 78.1 | 74.7 | 4.06 | 100 | – | – | –
CC(C)C[C@H](NC(=O)[C@H](CCCCN)NC(=O)[C@H](Cc1cccc2ccccc12)NC(=O)[C@H](Cc1ccccc1)NC(=O)[C@@H](N)Cc1cccc2ccccc12)C(=O)N[C@@H](CCCCN)C(=O)N[C@@H](CCCCN)C(N)=O [Compound 16, (1-Nal)Ala-Phe-(1-Nal)Ala-Lys-Leu-Lys-Lys] (HELM PEPTIDE1{[N[C@@H](Cc1cccc2ccccc12)C(=O)[*:2]].F.[O=C([C@H](Cc1cccc2ccccc12)N[*:1])[*:2]].K.L.K.K.[am]}$$$$V2.0) | 16 to 32 | 64 (≈ 60.6 µM) | 30.6 | 45.2 | 16.4 | < 3.82 | 27.7 | 8 to 16 | 47.4 | 3.87 | 55.5 | 145.0 | < 3.82 | 11 | – | – | –
CC(C)C[C@H](NC(=O)[C@H](Cc1cccc2ccccc12)NC(=O)[C@H](Cc1ccccc1)NC(=O)[C@@H](N)Cc1cccc2ccccc12)C(=O)N[C@@H](CCCCN)C(=O)N[C@@H](CCCCN)C(=O)N[C@@H](CCCCN)C(N)=O [Compound 5, (1-Nal)Ala-Phe-(1-Nal)Ala-Leu-Lys-Lys-Lys] (HELM PEPTIDE1{[N[C@@H](Cc1cccc2ccccc12)C(=O)[*:2]].F.[O=C([C@H](Cc1cccc2ccccc12)N[*:1])[*:2]].L.K.K.K.[am]}$$$$V2.0) | 32 (≈ 30.3 µM) | > 64 | < 8 | – | 29.6 | < 3.82 | 22.5 | 16 (≈ 15.1 µM) | 35.3 | < 3.82 | 36 | 147.7 | < 3.82 | 10.2 | 2.99 | 3.28 | 15.1
CC(C)C[C@@H](NC(=O)[C@H](CCCCN)NC(=O)[C@H](CCCCN)NC(=O)[C@@H](N)CCCCN)C(=O)N[C@H](Cc1ccc2ccccc2c1)C(=O)N[C@H](Cc1ccc(O)cc1)C(=O)N[C@H](Cc1ccc2ccccc2c1)C(N)=O [Compound 24, Lys-Lys-Lys-Leu-(2-Nal)Ala-Tyr-(2-Nal)Ala] (HELM PEPTIDE1{K.K.K.[dL].[O=C([C@@H](Cc1ccc2ccccc2c1)N[*:1])[*:2]].[dY].[O=C([C@@H](Cc1ccc2ccccc2c1)N[*:1])[*:2]].[am]}$$$$V2.0) | 16 to 32 | 32 (≈ 29.8 µM) | 29.8 | 89.6 | 45.0 | < 3.82 | 38.5 | 4 to 8 | 76.72 | < 3.82 | 23.4 | > 150 | < 3.82 | < 8 | – | – | –
